Here are results for one molecule from US11998008B2, “Pesticides and methods of controlling pests” (The State of Israel, Ministry of Agriculture & Rural …, priority 2017, dated 2024).

In data set [1] the test system is Meloidogyne javanica second stage juveniles (J2s). The data set can be described thus: Nematocidal activity: viability of J2 nematodes after 2 days exposure to the compound in a sealed box. The note with it: comparison within the series. Type of data set: in vivo. The source says: In exemplary procedures, the sedentary root-knot nematode from the genus Meloidogyne javanica second stage juveniles (J2s) was propagated on greenhouse-grown nematode-susceptible tomato Lycopersicon esculentum cv. ‘Avigail 870’ (Hazera, Shikmim, Israel), and nematode eggs were bulk-extracted from the roots with 0.05% (v/v) sodium hypochlorite (NaOCl) followed by sucrose flotation and successive sievings through nylon filters of 300, 120, 60, and 30 μm mesh sizes (AD Sinun Technologies, Petach Tikvah, Israel). For hatching J2, extracted eggs were placed on 30-μm sieves (AD Sinun Technologies) in 0.01 M MES (2-(N-morpholino) ethanesulfonic acid hydrate) pH 6.5 buffer under aseptic conditions in darkness for 5 days, and hatching J2s were collected for further experiments.
Seven vials, each containing 300 J2 nematodes with 0.5 mL of 0.01 M 2-(N-morpholino)ethanesulfonic acid (MES) buffer, were exposed to cyclic ketone compounds in order to examine their nematocidal activity and reduction in viability. In addition, a humid environment in a sealed 1 L box was maintained by addition 5 ml of distilled H2O to a 50-mm Petri plate. The box was sealed after compound addition into each 50-mm Petri plate together with 5-250 mg of perlite particles and incubated for 2 days in the dark at 25±1° C. C5 and C6 saturated and α,β-unsaturated cyclic ketones were tested for their nematocidal activity. The J2 nematodes viability was examined following exposure to the cyclic ketone compounds, by a straightforward small-scale nematode extraction method, based on the traditional Baermann funnel method. Briefly, all nematode suspensions were loaded onto 30-μm (AD Sinun Technologies) filters (1.0-1.5 cm height, 1.1-2.0 cm^3 internal area), and the nematodes were washed twice with 300 μL of 0.01 M MES buffer in order to remove any residues. Then, filters holding nematodes were placed into 15 mL Falcon centrifuge tubes, each containing 900 μL of 0.01 M of MES buffer. These filters allow active passage of only living J2s while paralyzed or dead nematodes remain on top of the filter. The whole apparatus including the filter holding the nematodes and the Falcon tubes were placed in the dark for 3 h at 25±1° C. Then, the filters were removed and the viable nematodes, which were able to actively cross the filter toward the 0.01 M of MES buffer, were collected from the Falcon tube and counted using a Nematode Counting Slide (Chalex LLC, Portland, OR, USA) and a SV11 stereomicroscope (Zeiss, Jena, Germany).
Data were analyzed by the JMP 12 software package (SAS Inc., Cary, NC, USA). Mean numbers of viable J2s under various conditions were subjected to one-way analysis of variance (ANOVA), followed by the Tukey-Kramer multiple comparison test, with significance set at P<0.05.

For a further data set, the system named is P. digitatum. The data set can be described thus: Fungicidal activity assay on PDA in sealed Petri dish (growth inhibition and mortality). As to conditions: Penicillium digitatum, NA + number = still viable in the highest concentration tested (given as >), read-out: M - Mortality, minimal concentration that killed the fungus. Type of data set: cell-based, Penicillium digitatum.

In a further data set the test system is Tomato plants. The data set can be described thus: Phytotoxicity on tomato plants in soil, compound on perlite particles. Type of data set: in vivo. The note with it: one day after treatment. The text has this:
In exemplary procedures, the phytotixicity of trans-2-octenal and 2-cyclopenten-1-one was examined in triplicates for each concentration: 250, 1,000, 4,000, and 20,000 ppm compared to control.

Data set [2] concerns lettuce seedling strain Raviv. The note with it: in vivo, 11 days.
In data set [3] the test system is Sclerotium rolfsii sclerotia. The data set can be described thus: Effect on Sclerotium rolfsii sclerotia buried in buckets. Type of data set: in vivo. The method, then:
The activity of trans-2-octenal was examined against phytopathogenic fungi and weeds. The experiment was performed in large buckets (110 L), which bottoms were removed, and therefore the loam in the bucket was continuous with the ground. The soil was inoculated one day prior the application of the compound. Soil inoculation was performed as follows: spores of Fusarium oxysporum […]-cucumerinum (FORC) were collected from culture plates and 25 mL of spore suspension at concentration of 9×10^5 was mixed with 10 L of tap water and then poured on the soil of each bucket. […] Half of the buckets were sealed with nylon while the other half remained open. Five days later, soil samples from three different depths (10, 20, and 30 cm) were taken from each bucket for fungal isolation and determination of fungal survival. […] After 3 days, the number of colonies was counted. […] Similar experiment was carried out with Sclerotium rolfsii as the phytopathogen fungus. The experiment was performed as above with the following modifications: 50 sclerotia of S. rolfsii were inserted into paper tea-bags and warped with nylon tights. Each bucket contained 9 tea-bags, 3 for each depth of 10, 20, and 30 cm. After burying the tea bags, the soil was watered with 10 L of tap water. […] Hyphal growth was detected after 2 days incubation at 25° C.

The subject of another data set is R. solani. The data set can be described thus: microbe, parasite or virus in culture. Type of data set: cell-based. The note with it: Rhizoctonia solani; R. solani; NA + number = still viable in the highest concentration tested (given as >); read-out: M - Mortality, minimal concentration that killed the fungus.

As for `CCCCC/C=C/C=O` [trans-2-octenal], the “nematocidal activity in words” value in data set [1] is listed as “relatively less potent nematicide”. In addition, the MFC amounted to 12.5 µg/mL with P. digitatum and 6.25 µg/mL with R. solani. Further, the phytotoxicity result in the data set with Tomato plants (250 ppm), in the data set with Tomato plants (1,000 ppm), in the data set with Tomato plants (4,000 ppm) and with Tomato plants (20,000 ppm) was “No phytotoxicity” in each case. The “concentration at which significant phytotoxic effect occurred” value in data set [2] turned out to be 400 ppm. Further, the viability of sclerotia result in data set [3] (depth 10 cm, open and close conditions, 125-250 ppm) is “reduced significantly”. Moreover, the “effect on viability of sclerotia” value in data set [3] (depth 30 cm, close conditions only, 250 ppm) is “significant effect”.
